Measured values taken from ChEMBL document CHEMBL3046635, “Synthesis and Herbicidal Activity of New Pyrazole-4-carboxamide Derivatives” (J Pestic Sci, 2004).
Calls of active or inactive are those of the source.

Columns and labels:
Rotala indica [1] = test: Pre-emergence herbicidal activity against Rotala indica at 2000 g a.i/ha measured after 14 days; type: functional, organism-based
Ammannia multiflora [2] = test: Post-emergence herbicidal activity against Ammannia multiflora assessed as bleaching of stem/leaf parts; type: functional, organism-based; also: test concentration or dose not given here
Elatine triandra [3] = test: Pre-emergence herbicidal activity against Elatine triandra assessed as bleaching of stem/leaf parts; type: functional, organism-based
Echinochloa oryzicola [4] = test: Post-emergence herbicidal activity against Echinochloa oryzicola assessed as bleaching of stem/leaf parts; type: functional, organism-based; also: test concentration or dose not given here
Pontederia vaginalis [5] = test: Post-emergence herbicidal activity against Monochoria vaginalis assessed as bleaching of stem/leaf parts; type: functional, organism-based; also: test concentration or dose not given here
[6] = test system: Schoenoplectiella juncoides; test: Pre-emergence herbicidal activity against Schoenoplectiella juncoides assessed as bleaching of stem/leaf parts; type: functional, organism-based
Lindernia procumbens [7] = test: Post-emergence herbicidal activity against Lindernia procumbens assessed as bleaching of stem/leaf parts; type: functional, organism-based; also: test concentration or dose not given here
[8] = test system: Schoenoplectiella juncoides; test: Pre-emergence herbicidal activity against Schoenoplectiella juncoides at 2000 g a.i/ha measured after 14 days; type: functional, organism-based
Pontederia vaginalis [9] = test: Pre-emergence herbicidal activity against Monochoria vaginalis assessed as bleaching of stem/leaf parts; type: functional, organism-based
Lindernia procumbens [10] = test: Pre-emergence herbicidal activity against Lindernia procumbens at 2000 g a.i/ha measured after 14 days; type: functional, organism-based
Elatine triandra [11] = test: Post-emergence herbicidal activity against Elatine triandra assessed as bleaching of stem/leaf parts; type: functional, organism-based; also: test concentration or dose not given here
Ammannia multiflora [12] = test: Pre-emergence herbicidal activity against Ammannia multiflora at 2000 g a.i/ha measured after 14 days; type: functional, organism-based
[13] = test system: Schoenoplectiella juncoides; test: Post-emergence herbicidal activity against Schoenoplectiella juncoides assessed as bleaching of stem/leaf parts; type: functional, organism-based; also: test concentration or dose not given here
Eleocharis acicularis [14] = test: Post-emergence herbicidal activity against Eleocharis acicularis assessed as bleaching of stem/leaf parts; type: functional, organism-based; also: test concentration or dose not given here
Echinochloa oryzicola [15] = test: Pre-emergence herbicidal activity against Echinochloa oryzicola assessed as bleaching of stem/leaf parts; type: functional, organism-based
Echinochloa oryzicola [16] = test: Pre-emergence herbicidal activity against Echinochloa oryzicola at 2000 g a.i/ha measured after 14 days; type: functional, organism-based
Rotala indica [17] = test: Post-emergence herbicidal activity against Rotala indica assessed as bleaching of stem/leaf parts; type: functional, organism-based; also: test concentration or dose not given here
Eleocharis acicularis [18] = test: Pre-emergence herbicidal activity against Eleocharis acicularis at 2000 g a.i/ha measured after 14 days; type: functional, organism-based
Eleocharis acicularis [19] = test: Pre-emergence herbicidal activity against Eleocharis acicularis assessed as bleaching of stem/leaf parts; type: functional, organism-based
Cyperus difformis [20] = test: Pre-emergence herbicidal activity against Cyperus difformis at 2000 g a.i/ha measured after 14 days; type: functional, organism-based
Lindernia procumbens [21] = test: Pre-emergence herbicidal activity against Lindernia procumbens assessed as bleaching of stem/leaf parts; type: functional, organism-based
Elatine triandra [22] = test: Pre-emergence herbicidal activity against Elatine triandra at 2000 g a.i/ha measured after 14 days; type: functional, organism-based
Ammannia multiflora [23] = test: Pre-emergence herbicidal activity against Ammannia multiflora assessed as bleaching of stem/leaf parts; type: functional, organism-based
Cyperus difformis [24] = test: Pre-emergence herbicidal activity against Cyperus difformis assessed as bleaching of stem/leaf parts; type: functional, organism-based
Rotala indica [25] = test: Pre-emergence herbicidal activity against Rotala indica assessed as bleaching of stem/leaf parts; type: functional, organism-based
Pontederia vaginalis [26] = test: Pre-emergence herbicidal activity against Monochoria vaginalis at 2000 g a.i/ha measured after 14 days; type: functional, organism-based
Cyperus difformis [27] = test: Post-emergence herbicidal activity against Cyperus difformis assessed as bleaching of stem/leaf parts; type: functional, organism-based; also: test concentration or dose not given here
Oryza sativa = test: Phytotoxicity against Oryza sativa cv. Koshihikari (rice) at 2000 g a.i/ha measured after 14 days; type: organism-based; conditions: in vivo, 336 h

CCCN(CC)C(=O)c1cn(C)nc1OCc1cccc(Cl)c1
Activity (Rotala indica [1]): Active
Activity (Ammannia multiflora [2]): Active
Activity (Elatine triandra [3]): Active
Activity (Echinochloa oryzicola [4]): Active
Activity (Pontederia vaginalis [5]): Active
Activity [6]: Active
Activity (Lindernia procumbens [7]): Active
Activity [8]: Active
Activity (Pontederia vaginalis [9]): Active
Activity (Lindernia procumbens [10]): Active
Activity (Elatine triandra [11]): Active
Activity (Ammannia multiflora [12]): Active
Activity [13]: Active
Activity (Eleocharis acicularis [14]): Active
Activity (Echinochloa oryzicola [15]): Active
Activity (Echinochloa oryzicola [16]): Active
Activity (Rotala indica [17]): Active
Activity (Eleocharis acicularis [18]): Active
Activity (Eleocharis acicularis [19]): Active
Activity (Cyperus difformis [20]): Active
Activity (Lindernia procumbens [21]): Active
Activity (Elatine triandra [22]): Active
Activity (Ammannia multiflora [23]): Active
Activity (Cyperus difformis [24]): Active
Activity (Rotala indica [25]): Active
Activity (Pontederia vaginalis [26]): Active
Activity (Cyperus difformis [27]): Active
Activity (Oryza sativa): Non-toxic

CCCN(CC)C(=O)c1cn(C)nc1OCc1cc(Br)cc(Br)c1
Activity (Rotala indica [1]): inactive
Activity (Ammannia multiflora [2]): Active
Activity (Elatine triandra [3]): Active
Activity (Echinochloa oryzicola [4]): Active
Activity (Pontederia vaginalis [5]): Active
Activity [6]: Active
Activity (Lindernia procumbens [7]): Active
Activity [8]: inactive
Activity (Pontederia vaginalis [9]): Active
Activity (Lindernia procumbens [10]): inactive
Activity (Elatine triandra [11]): Active
Activity (Ammannia multiflora [12]): inactive
Activity [13]: Active
Activity (Eleocharis acicularis [14]): Active
Activity (Echinochloa oryzicola [15]): Active
Activity (Echinochloa oryzicola [16]): inactive
Activity (Rotala indica [17]): Active
Activity (Eleocharis acicularis [18]): inactive
Activity (Eleocharis acicularis [19]): Active
Activity (Cyperus difformis [20]): inactive
Activity (Lindernia procumbens [21]): Active
Activity (Elatine triandra [22]): inactive
Activity (Ammannia multiflora [23]): Active
Activity (Cyperus difformis [24]): Active
Activity (Rotala indica [25]): Active
Activity (Pontederia vaginalis [26]): inactive
Activity (Cyperus difformis [27]): Active
Activity (Oryza sativa): Non-toxic

C#CCOc1nn(C)cc1C(=O)N(CC)CCC
Activity (Rotala indica [1]): inactive
Activity (Ammannia multiflora [2]): Active
Activity (Elatine triandra [3]): Active
Activity (Echinochloa oryzicola [4]): Active
Activity (Pontederia vaginalis [5]): Active
Activity [6]: Active
Activity (Lindernia procumbens [7]): Active
Activity [8]: inactive
Activity (Pontederia vaginalis [9]): Active
Activity (Lindernia procumbens [10]): inactive
Activity (Elatine triandra [11]): Active
Activity (Ammannia multiflora [12]): inactive
Activity [13]: Active
Activity (Eleocharis acicularis [14]): Active
Activity (Echinochloa oryzicola [15]): Active
Activity (Echinochloa oryzicola [16]): inactive
Activity (Rotala indica [17]): Active
Activity (Eleocharis acicularis [18]): inactive
Activity (Eleocharis acicularis [19]): Active
Activity (Cyperus difformis [20]): inactive
Activity (Lindernia procumbens [21]): Active
Activity (Elatine triandra [22]): inactive
Activity (Ammannia multiflora [23]): Active
Activity (Cyperus difformis [24]): Active
Activity (Rotala indica [25]): Active
Activity (Pontederia vaginalis [26]): inactive
Activity (Cyperus difformis [27]): Active
Activity (Oryza sativa): Non-toxic

CCCN(CC)C(=O)c1cn(C)nc1OCc1cccc(C#N)c1
Activity (Rotala indica [1]): inactive
Activity (Ammannia multiflora [2]): Active
Activity (Elatine triandra [3]): Active
Activity (Echinochloa oryzicola [4]): Active
Activity (Pontederia vaginalis [5]): Active
Activity [6]: Active
Activity (Lindernia procumbens [7]): Active
Activity [8]: inactive
Activity (Pontederia vaginalis [9]): Active
Activity (Lindernia procumbens [10]): inactive
Activity (Elatine triandra [11]): Active
Activity (Ammannia multiflora [12]): inactive
Activity [13]: Active
Activity (Eleocharis acicularis [14]): Active
Activity (Echinochloa oryzicola [15]): Active
Activity (Echinochloa oryzicola [16]): inactive
Activity (Rotala indica [17]): Active
Activity (Eleocharis acicularis [18]): inactive
Activity (Eleocharis acicularis [19]): Active
Activity (Cyperus difformis [20]): inactive
Activity (Lindernia procumbens [21]): Active
Activity (Elatine triandra [22]): inactive
Activity (Ammannia multiflora [23]): Active
Activity (Cyperus difformis [24]): Active
Activity (Rotala indica [25]): Active
Activity (Pontederia vaginalis [26]): inactive
Activity (Cyperus difformis [27]): Active
Activity (Oryza sativa): Non-toxic

CCCN(CC)C(=O)c1cn(C)nc1OCc1ccc(SC)cc1
Activity (Rotala indica [1]): inactive
Activity (Ammannia multiflora [2]): Active
Activity (Elatine triandra [3]): Active
Activity (Echinochloa oryzicola [4]): Active
Activity (Pontederia vaginalis [5]): Active
Activity [6]: Active
Activity (Lindernia procumbens [7]): Active
Activity [8]: inactive
Activity (Pontederia vaginalis [9]): Active
Activity (Lindernia procumbens [10]): inactive
Activity (Elatine triandra [11]): Active
Activity (Ammannia multiflora [12]): inactive
Activity [13]: Active
Activity (Eleocharis acicularis [14]): Active
Activity (Echinochloa oryzicola [15]): Active
Activity (Echinochloa oryzicola [16]): inactive
Activity (Rotala indica [17]): Active
Activity (Eleocharis acicularis [18]): inactive
Activity (Eleocharis acicularis [19]): Active
Activity (Cyperus difformis [20]): inactive
Activity (Lindernia procumbens [21]): Active
Activity (Elatine triandra [22]): inactive
Activity (Ammannia multiflora [23]): Active
Activity (Cyperus difformis [24]): Active
Activity (Rotala indica [25]): Active
Activity (Pontederia vaginalis [26]): inactive
Activity (Cyperus difformis [27]): Active
Activity (Oryza sativa): Non-toxic

CCCN(CC)C(=O)c1cn(C)nc1OCc1cccc(Br)c1
Activity (Rotala indica [1]): inactive
Activity (Ammannia multiflora [2]): Active
Activity (Elatine triandra [3]): Active
Activity (Echinochloa oryzicola [4]): Active
Activity (Pontederia vaginalis [5]): Active
Activity [6]: Active
Activity (Lindernia procumbens [7]): Active
Activity [8]: Active
Activity (Pontederia vaginalis [9]): Active
Activity (Lindernia procumbens [10]): inactive
Activity (Elatine triandra [11]): Active
Activity (Ammannia multiflora [12]): inactive
Activity [13]: Active
Activity (Eleocharis acicularis [14]): Active
Activity (Echinochloa oryzicola [15]): Active
Activity (Echinochloa oryzicola [16]): Active
Activity (Rotala indica [17]): Active
Activity (Eleocharis acicularis [18]): Active
Activity (Eleocharis acicularis [19]): Active
Activity (Cyperus difformis [20]): inactive
Activity (Lindernia procumbens [21]): Active
Activity (Elatine triandra [22]): inactive
Activity (Ammannia multiflora [23]): Active
Activity (Cyperus difformis [24]): Active
Activity (Rotala indica [25]): Active
Activity (Pontederia vaginalis [26]): Active
Activity (Cyperus difformis [27]): Active
Activity (Oryza sativa): Non-toxic

CCCN(CC)C(=O)c1cn(C)nc1OCc1ccccc1
Activity (Rotala indica [1]): Active
Activity (Ammannia multiflora [2]): Active
Activity (Elatine triandra [3]): Active
Activity (Echinochloa oryzicola [4]): Active
Activity (Pontederia vaginalis [5]): Active
Activity [6]: Active
Activity (Lindernia procumbens [7]): Active
Activity [8]: inactive
Activity (Pontederia vaginalis [9]): Active
Activity (Lindernia procumbens [10]): Active
Activity (Elatine triandra [11]): Active
Activity (Ammannia multiflora [12]): Active
Activity [13]: Active
Activity (Eleocharis acicularis [14]): Active
Activity (Echinochloa oryzicola [15]): Active
Activity (Echinochloa oryzicola [16]): Active
Activity (Rotala indica [17]): Active
Activity (Eleocharis acicularis [18]): Active
Activity (Eleocharis acicularis [19]): Active
Activity (Cyperus difformis [20]): Active
Activity (Lindernia procumbens [21]): Active
Activity (Elatine triandra [22]): Active
Activity (Ammannia multiflora [23]): Active
Activity (Cyperus difformis [24]): Active
Activity (Rotala indica [25]): Active
Activity (Pontederia vaginalis [26]): Active
Activity (Cyperus difformis [27]): Active
Activity (Oryza sativa): Non-toxic
